The record followed here is ChEMBL document CHEMBL1159374, “Callysponginol sulfate A, an MT1-MMP inhibitor isolated from the marine sponge Callyspongia truncata” (J Nat Prod, 2003).

Structures can show the parent of a compound that is named as a salt. Calls of active or inactive are those of the source. The calls are words filed in the database; no cut-off is given here.

The target of this test is Matrix metalloproteinase-14 (Homo sapiens, UniProt P50281). Briefly: Inhibition of truncated recombinant MT1-MMP expressed in Escherichia coli JM109 after 1 hr by fluorescence assay.

Regarding `CCCCCC/C=C\CCCCCCCCCCCCC#C[C@@H](O)C(=O)O`, the result was inactive.
Turning to `CCCCCC/C=C\CCCCCCCCCCCCC#C[C@@H](OS(=O)(=O)O)C(=O)O` [CALLYSPONGINOL SULFATE A], the IC50 was 31.2 µM.
Still for that read-out and setting: under `CC(CC[C@@H](C)[C@H]1CC[C@H]2[C@@H]3C[C@H](OS(=O)(=O)O)[C@H]4C[C@H](OS(=O)(=O)O)[C@@H](OS(=O)(=O)O)C[C@]4(C)[C@H]3CC[C@]12C)C(C)(C)C` (stereo partly drawn) [HALISTANOL SULFATE] stands 25.2 µM.
